The text below walks through data of patent publication US20060088882A1, “Methods for the treatment or prevention of obesity” (priority 2002, published 2006).

In one experiment the target is VEGFR2 (Homo sapiens, UniProt P35968). The conditions noted are these: cited from earlier work.
The target in the next experiment is VEGFR1 (Homo sapiens, UniProt P17948). The settings on record: cited from earlier work.
For experiment [1], the system named is preadipocytes. The conditions noted are these: exogenous VEGF added to culture media, doses as high as 100 ng/ml; MTT assay. On the technique in general: Tetrazolium dyes change colour on reduction, which living cells bring about.
Method: For proliferation assays, 500 preadipocytes and fibroblasts were plated in 96 well plates, and mouse recombinant VEGF164 (50 ng/ml) and PBS were added (FIG. 7B). An MTT assay was performed at day 4, when the cells were still subconfluent in all wells. Culture media were changed with 100 μl of fresh media, and 10 μl of sterile tetrazolium salt, MTT (3[4,5-dimethylthiazol-2-yl]-2,5-diphenyl-tetrazolium bromide, Sigma) was added in each well and incubated for four hours at 37° C. Finally, 100 μl of 10% SDS were added, and after incubation at 37° C. overnight, the plate was read at 490 nm. The optical density values were normalized to that of the PBS treated cells and used as a measure of viability.
For MTT assays, mouse recombinant VEGF (50 ng/ml) and PBS, and rat IgG (1 μg/ml) were used. MTT assay was performed at day 4. The optical density values were normalized to that of the PBS treated cells and were used as a measure of viability (FIGS. 8B and 8C). MTT assay for preadipocytes after four days of culture with endothelial conditioned media. “FBS” denotes non-conditioned culture media with 10% FBS; “SN” denotes supernatant, endothelial conditioned media cultured with 10% FBS but no other additives; “SN/VEGF/IgG” denotes endothelial conditioned media cultured with 10% FBS, VEGF (50 ng/ml) and non-specific IgG (5 μg/ml). Data are normalized to the control condition (FBS). […]
For experiment [2], the system named is preadipocytes. The conditions noted are these: conditioned media from endothelial cells cultured in the presence of VEGF and IgG; MTT assay.
Method: For MTT assays, mouse recombinant VEGF (50 ng/ml) and PBS, and rat IgG (1 μg/ml) were used. MTT assay was performed at day 4. The optical density values were normalized to that of the PBS treated cells and were used as a measure of viability (FIGS. 8B and 8C). MTT assay for preadipocytes after four days of culture with endothelial conditioned media. “FBS” denotes non-conditioned culture media with 10% FBS; “SN” denotes supernatant, endothelial conditioned media cultured with 10% FBS but no other additives; “SN/VEGF/IgG” denotes endothelial conditioned media cultured with 10% FBS, VEGF (50 ng/ml) and non-specific IgG (5 μg/ml). Data are normalized to the control condition (FBS). Error bars represent standard error.
To assess the paracrine effects of VEGF on cell proliferation, preadipocytes were plated as described for FIG. 8B with conditioned media from endothelial cells cultured in the presence of VEGF and IgG. At day 5, the assay was perform as described, and the optical density for the cells cultured in non-conditioned media was used as a measure of viability.
Experiment [3] relates to preadipocytes. The settings on record: conditioned media from endothelial cells cultured in the presence of VEGF (50 ng/ml); day 11; normalized to SN control. The text has this:
Error bars represent standard error.
The media was changed every other day.

Another experiment relates to 3T3-F442A preadipocytes. In words: In vitro differentiation of 3T3-F442A preadipocytes (Oil Red O staining). Format: cell-based, mouse. The method, then:
FIGS. 5A-5C are pictures of preadipocyte differentiation. FIG. 5A is a transillumination image of differentiated adipocytes in vitro. FIG. 5B is a fluorescence image of differentiated adipocytes in vivo. FIG. 5C is a picture showing the effect of PPARγ inhibition on adipogenesis. Preadipocytes (1×10^5 cells) were plated in a 6-well plate and transfected at a multiplicity of infection of 10^4 plaque forming units/cell using mock- (upper panels) or PPARγ-DN adenovirus (lower panels) and differentiation was promoted by using media containing 10% FBS.
FIG. 7A and 7B illustrate the effect of VEGF on preadipocyte differentiation and proliferation. To investigate the effects of VEGF on the in vitro differentiation of preadipocytes, 3T3-F442A cells were grown to confluence in media supplemented with calf serum (FCS, maintenance media), and exposed to increasing concentrations of murine recombinant VEGF164 (R&D Systems, Minneapolis, Minn.) from 0-100 ng/ml. […] Adipocyte differentiation was assessed by Oil Red O staining.
The bar indicates 50 μm. […] MTT assay was performed at day 4. […] Data are normalized to the control condition (FBS). Error bars represent standard error.
VEGFR2 expression was undetectable in the preadipocytes.

Sequence of VEGFR1 (P17948 27-1338, species assumed): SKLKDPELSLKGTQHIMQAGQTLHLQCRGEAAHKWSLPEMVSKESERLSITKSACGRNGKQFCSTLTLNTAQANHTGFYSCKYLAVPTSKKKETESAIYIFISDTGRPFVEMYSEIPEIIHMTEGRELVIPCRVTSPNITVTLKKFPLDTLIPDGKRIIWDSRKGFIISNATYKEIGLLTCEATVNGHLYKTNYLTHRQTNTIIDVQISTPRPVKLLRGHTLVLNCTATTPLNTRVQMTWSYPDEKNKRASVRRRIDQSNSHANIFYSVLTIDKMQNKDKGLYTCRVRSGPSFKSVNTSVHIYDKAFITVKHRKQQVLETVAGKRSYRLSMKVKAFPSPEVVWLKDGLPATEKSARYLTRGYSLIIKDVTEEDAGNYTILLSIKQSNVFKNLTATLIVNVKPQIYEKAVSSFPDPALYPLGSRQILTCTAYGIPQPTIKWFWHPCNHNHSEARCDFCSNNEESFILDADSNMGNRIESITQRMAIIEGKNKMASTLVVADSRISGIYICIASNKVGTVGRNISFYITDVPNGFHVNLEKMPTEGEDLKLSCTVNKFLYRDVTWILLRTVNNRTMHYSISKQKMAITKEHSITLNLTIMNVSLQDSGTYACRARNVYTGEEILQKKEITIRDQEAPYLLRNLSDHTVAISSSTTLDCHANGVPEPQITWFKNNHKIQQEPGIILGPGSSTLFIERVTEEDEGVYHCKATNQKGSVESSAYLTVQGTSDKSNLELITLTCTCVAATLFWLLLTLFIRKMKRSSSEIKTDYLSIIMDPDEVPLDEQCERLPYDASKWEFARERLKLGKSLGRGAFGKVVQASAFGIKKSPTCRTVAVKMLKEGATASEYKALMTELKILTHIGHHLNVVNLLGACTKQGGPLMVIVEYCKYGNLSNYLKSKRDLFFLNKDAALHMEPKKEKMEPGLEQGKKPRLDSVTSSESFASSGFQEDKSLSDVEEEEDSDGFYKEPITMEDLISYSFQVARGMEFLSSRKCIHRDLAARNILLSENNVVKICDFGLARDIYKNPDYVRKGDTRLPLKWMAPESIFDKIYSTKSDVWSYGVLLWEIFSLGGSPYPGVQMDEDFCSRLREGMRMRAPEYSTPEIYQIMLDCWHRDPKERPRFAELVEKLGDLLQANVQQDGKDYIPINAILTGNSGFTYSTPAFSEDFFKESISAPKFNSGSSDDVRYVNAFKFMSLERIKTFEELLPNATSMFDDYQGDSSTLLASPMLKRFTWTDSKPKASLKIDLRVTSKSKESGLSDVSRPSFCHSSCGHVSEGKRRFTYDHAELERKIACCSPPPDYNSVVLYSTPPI
Sequence of VEGFR2 (P35968 20-1356, species assumed): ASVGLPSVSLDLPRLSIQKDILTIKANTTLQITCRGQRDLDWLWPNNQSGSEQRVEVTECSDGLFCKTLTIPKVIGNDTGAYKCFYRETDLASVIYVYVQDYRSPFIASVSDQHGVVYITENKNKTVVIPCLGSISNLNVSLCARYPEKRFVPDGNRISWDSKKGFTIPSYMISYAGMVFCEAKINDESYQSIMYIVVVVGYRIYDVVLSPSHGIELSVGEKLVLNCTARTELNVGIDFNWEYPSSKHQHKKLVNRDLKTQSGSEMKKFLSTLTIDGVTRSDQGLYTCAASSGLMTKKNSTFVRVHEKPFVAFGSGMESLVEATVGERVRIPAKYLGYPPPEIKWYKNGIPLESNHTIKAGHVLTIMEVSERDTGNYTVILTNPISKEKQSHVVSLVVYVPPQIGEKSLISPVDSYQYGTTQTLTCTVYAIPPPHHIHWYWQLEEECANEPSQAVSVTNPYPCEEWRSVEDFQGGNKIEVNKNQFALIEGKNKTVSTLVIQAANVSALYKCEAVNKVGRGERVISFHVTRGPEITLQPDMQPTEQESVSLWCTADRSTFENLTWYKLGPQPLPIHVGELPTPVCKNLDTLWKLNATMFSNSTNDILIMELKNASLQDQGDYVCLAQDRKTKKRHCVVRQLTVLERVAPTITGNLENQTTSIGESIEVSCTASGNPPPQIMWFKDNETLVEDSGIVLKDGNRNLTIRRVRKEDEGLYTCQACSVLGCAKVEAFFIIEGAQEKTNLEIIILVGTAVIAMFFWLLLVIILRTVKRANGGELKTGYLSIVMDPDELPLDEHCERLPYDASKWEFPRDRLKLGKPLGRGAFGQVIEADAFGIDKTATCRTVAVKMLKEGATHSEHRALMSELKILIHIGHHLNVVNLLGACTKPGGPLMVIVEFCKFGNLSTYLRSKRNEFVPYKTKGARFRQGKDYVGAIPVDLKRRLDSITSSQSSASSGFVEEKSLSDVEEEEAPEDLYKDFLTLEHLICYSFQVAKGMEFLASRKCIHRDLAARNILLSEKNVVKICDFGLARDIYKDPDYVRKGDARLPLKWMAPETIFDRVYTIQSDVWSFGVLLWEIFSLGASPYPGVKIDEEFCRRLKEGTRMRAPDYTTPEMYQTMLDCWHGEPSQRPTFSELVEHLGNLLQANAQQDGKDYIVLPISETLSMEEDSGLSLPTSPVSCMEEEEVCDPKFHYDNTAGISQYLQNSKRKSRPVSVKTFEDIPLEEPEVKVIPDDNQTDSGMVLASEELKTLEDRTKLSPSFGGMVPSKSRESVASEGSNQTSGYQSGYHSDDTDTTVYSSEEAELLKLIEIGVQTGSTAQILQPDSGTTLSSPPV

Turning to `CCCNC(=O)Nc1ccc(Oc2ncnc3cc(OC)c(OC)cc23)cc1Cl` [KRN633], the “inhibition of VEGFR2” value at VEGFR2 was “inhibits”. Further, the “inhibition of VEGFR1” value at VEGFR1 is on record as “inhibits”.
Regarding VEGF, the “adipose cell proliferation and survival in vitro” value in the experiment with preadipocytes [1] is “not significantly affected”. The preadipocyte survival/proliferation entry in the experiment with preadipocytes [2] is “increased preadipocyte survival/proliferation”. Further, the “aP2 expression (differentiation of preadipocytes)” value with preadipocytes [3] is “almost three-fold increase”. Further, the “differentiation rate of preadipocytes” value in the experiment with 3T3-F442A preadipocytes (differentiation media (10% FBS), VEGF 0-100 ng/ml or 50 ng/ml, Oil Red O staining) is “did not increase the differentiation rate”. Also, the “adipose cell differentiation in vitro” value in the experiment with 3T3-F442A preadipocytes (exogenous VEGF added to culture media, doses as high as 100 ng/ml) was “not significantly affected”. Also, the “induction of differentiation in preadipocytes” value in the experiment with 3T3-F442A preadipocytes (maintenance media (10% calf serum), VEGF 0-100 ng/ml or 50 ng/ml, Oil Red O staining) was “did not induce differentiation”.
